According to paper PMC11964921 (npj Drug Discovery, 2025):
In brackets after ≈: the same amount, converted by molar mass. Read-outs that look alike come from different tables or passages of the source.

Assays:
[1] = test system: M. tuberculosis H37Rv Pasteur; experiment: MIC determination, agar dilution method; type: cell-based
M. tuberculosis Erdman = experiment: MIC determination, agar dilution method; type: cell-based
[2] = test system: M. tuberculosis H37Rv-ΔcydAB; experiment: microbe, parasite or virus in culture; type: cell-based; settings: Mycobacterium tuberculosis; for MIC50: 120 h
[3] = test system: membranes from M. smegmatis wild-type strain MC2155; type: biochemical; settings: read-out: IC50 oxygen consumption
[4] = test system: membranes from M. smegmatis cytochrome bd knockout strain (ΔcydAB); type: biochemical; settings: read-out: IC50 oxygen consumption
[5] = test system: membranes from M. smegmatis cytochrome bc knockout strain (ΔqcrCAB); type: biochemical
[6] = test system: isolated membranes from M. smegmatis; settings: cited from earlier work
[7] = test system: isolated membranes from M. tuberculosis; settings: cited from earlier work
whole cell M. smegmatis = settings: cited from earlier work
[8] = test system: cytochrome bd knockout strain of M. smegmatis; settings: cited from earlier work
[9] = test system: M. tuberculosis H37Rv-ΔcydAB; design: species or system mouse (Balb/cBy); settings: mouse, in vivo, 25 mg/kg

SMILES	MIC ([1]; Mycobacterium tuberculosis, H37Rv reference strain, read-out: MIC) [nM]	MIC ([1]; Mycobacterium tuberculosis, strain H37Rv Pasteur, <1% of inoculum able to grow, read-out: MIC) [ng/mL]	MIC ([1]; strain H37Rv Pasteur, <1% of inoculum able to grow) [ng/mL]	MIC (M. tuberculosis Erdman; Mycobacterium tuberculosis, Erdman reference strain, read-out: MIC) [nM]	MIC (M. tuberculosis Erdman; Mycobacterium tuberculosis, strain Erdman, read-out: MIC) [ng/mL]	MIC (M. tuberculosis Erdman; strain Erdman) [ng/mL]	MIC50 [2] [nM]	IC50 [3] [µM]	IC50 [4] [µM]	reduction of activity (oxygen consumption) [5] [%]	MIC [2] [nM]	IC50 [6] [µM]	IC50 [7] [µM]	MIC (whole cell M. smegmatis) [nM]	MIC [8]	reduction in bacterial load (lungs) [9] [log]
CCc1nc2ccc(Cl)cn2c1C(=O)NCc1ccc(C2CC3(C2)CN(S(=O)(=O)C(F)(F)F)C3)cc1 [JNJ-2901]	> 16	> 8	>8	> 16	> 8	>8	2.5 ± 0.1 (≈ 1.35 ng/mL)	0.089 ± 0.054	0.06 ± 0.026	20	–	–	–	–	–	–
CCc1nc2ccc(Cl)cn2c1C(=O)NCc1ccc(N2CCC(c3ccc(OC(F)(F)F)cc3)CC2)cc1 [Q203]	–	–	–	–	–	–	2 ± 0.1 (≈ 1.11 ng/mL)	–	–	–	~2 (≈ 1.11 ng/mL)	~0.02	~0.02	> 50000	~ 2.5 μM	–
COc1nc2ccc(Br)cc2cc1[C@@H](c1ccccc1)[C@@](O)(CCN(C)C)c1cccc2ccccc12 [bedaquiline, reference compound]	–	–	–	–	–	–	–	–	–	–	–	–	–	–	–	4.6
